ChEMBL document CHEMBL5257132, “Discovery of a Novel Series of Potent SHP2 Allosteric Inhibitors” (ACS Med Chem Lett, 2023)
Values after ≈ are worked out from the molar mass of the structure shown.

How the values were obtained:
[1] = target: T1, Tyrosine-protein phosphatase non-receptor type 11 (Homo sapiens, UniProt Q06124); assay: Allosteric inhibition of recombinant human SHP2 using IRS1 peptide and DiFMUP as substrate incubated for 30 mins followed by DiFMUP addition and measured after 30 mins by fluorescence based microplate reader analysis
T1 sequence (Q06124 whole entry): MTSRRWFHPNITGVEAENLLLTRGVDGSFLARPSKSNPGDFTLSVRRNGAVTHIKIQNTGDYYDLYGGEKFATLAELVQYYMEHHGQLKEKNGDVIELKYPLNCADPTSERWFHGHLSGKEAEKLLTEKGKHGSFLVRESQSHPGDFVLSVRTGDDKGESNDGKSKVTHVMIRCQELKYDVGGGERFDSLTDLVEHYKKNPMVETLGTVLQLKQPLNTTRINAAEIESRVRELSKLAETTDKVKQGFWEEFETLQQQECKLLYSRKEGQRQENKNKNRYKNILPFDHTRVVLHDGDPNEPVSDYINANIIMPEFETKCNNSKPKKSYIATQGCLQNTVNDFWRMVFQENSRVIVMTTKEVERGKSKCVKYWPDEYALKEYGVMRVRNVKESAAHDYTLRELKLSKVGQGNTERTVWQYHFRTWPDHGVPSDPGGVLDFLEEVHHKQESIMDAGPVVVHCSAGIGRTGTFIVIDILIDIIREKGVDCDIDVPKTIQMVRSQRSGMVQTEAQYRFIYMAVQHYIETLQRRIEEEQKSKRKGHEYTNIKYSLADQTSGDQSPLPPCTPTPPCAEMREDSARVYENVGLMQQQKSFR

[2] = Inhibition of ERK phosphorylation in human KYSE520 cells incubated for 2 hrs by TR-FRET assay; type: cell-based; conditions: KYSE-520, 2 h
[3] = target: Voltage-gated inwardly rectifying potassium channel KCNH2 (Homo sapiens, UniProt Q12809); assay: Inhibition of human ERG by fluorescence polarization assay; type: toxicity
KYSE-520 cell line = assay: Antiproliferative activity against human KYSE520 cells assessed as inhibition of cell proliferation incubated for 96 hrs by CellTiter-Glo reagent based assay; type: functional; conditions: KYSE-520, 96 h
[4] = Apparent permeability of compound at pH 7.4 at 5 uM incubated for 4 hrs by PAMPA based LC-MS/MS analysis; type: ADME
[5] = Kinetic solubility of compound in FaSSIF by LCMS analysis; type: ADME; conditions: read-out: Kinetic_solubility
[6] = Kinetic solubility of compound in FeSSIF by LCMS analysis; type: ADME; conditions: read-out: Kinetic_solubility
[7] = Kinetic solubility of compound in FaSSGF by LCMS analysis; type: ADME; conditions: read-out: Kinetic_solubility
[8] = Apparent permeability of compound in dog MDCK-MDR1 cells by LC-MS/MS analysis; type: ADME, cell-based, Canis lupus familiaris
[9] = Efflux ratio of apparent permeability […] in dog MDCK-MDR1 cells by LC-MS/MS analysis; type: ADME, cell-based, Canis lupus familiaris
[10] = Metabolic stability in Sprague-Dawley rat liver microsomes assessed as intrinsic clearance at 1 uM and measured upto 60 mins in presence of NADPH as cofactor by LC-MS/MS analysis; type: ADME, Microsome; conditions: read-out: CLH
[11] = Metabolic stability in human liver microsomes assessed as intrinsic clearance at 1 uM and measured upto 60 mins in presence of NADPH as cofactor by LC-MS/MS analysis; type: ADME, Microsome; conditions: read-out: CLH
[12] = Clearance in Sprague-Dawley rat plasma at 0.5 mg/kg, iv and measured upto 24 hrs by LC-MS/MS analysis; type: ADME, organism-based
[13] = Volume of distribution at steady state in Sprague-Dawley rat plasma at 0.5 mg/kg, iv and measured upto 24 hrs by LC-MS/MS analysis; type: ADME, organism-based; conditions: read-out: Vdss
[14] = Half life in Sprague-Dawley rat plasma at 0.5 mg/kg, iv and measured upto 24 hrs by LC-MS/MS analysis; type: ADME, organism-based
[15] = Cmax in Sprague-Dawley rat plasma at 1 mg/kg, po administered as 60:20:20 PEG400/DMSO/H2O formulation and measured upto 24 hrs by LC-MS/MS analysis; type: ADME, organism-based; design: dose 1 mg/kg, time < 24 hrs, route po
[16] = AUC in Sprague-Dawley rat plasma at 1 mg/kg,po administered as 60:20:20 PEG400/DMSO/H2O formulation and measured upto 24 hrs by LC-MS/MS analysis; type: ADME, organism-based; design: time < 24 hrs, dose 1 mg/kg, route po
[17] = Oral bioavailability in Sprague-Dawley rat plasma at 1 mg/kg administered as 60:20:20 PEG400/DMSO/H2O formulation and measured upto 24 hrs by LC-MS/MS analysis; type: ADME, organism-based
[18] = AUC in Sprague-Dawley rat plasma at 1 mg/kg,po administered as 60:20:20 PEG400/DMSO/H2O formulation and measured upto 24 hrs in presence of Elacridar by LC-MS/MS analysis; type: ADME, organism-based; design: time < 24 hrs, dose 1 mg/kg, route po; conditions: with Elacridar (dose not stated)
[19] = AUC in Sprague-Dawley rat plasma at 1 mg/kg,po administered as 50:50 PEG400/Labrasol formulation and measured upto 24 hrs by LC-MS/MS analysis; type: ADME, organism-based; design: dose 1 mg/kg, time < 24 hrs, route po

Voltage-gated inwardly rectifying potassium channel KCNH2, sequence (Q12809 whole entry): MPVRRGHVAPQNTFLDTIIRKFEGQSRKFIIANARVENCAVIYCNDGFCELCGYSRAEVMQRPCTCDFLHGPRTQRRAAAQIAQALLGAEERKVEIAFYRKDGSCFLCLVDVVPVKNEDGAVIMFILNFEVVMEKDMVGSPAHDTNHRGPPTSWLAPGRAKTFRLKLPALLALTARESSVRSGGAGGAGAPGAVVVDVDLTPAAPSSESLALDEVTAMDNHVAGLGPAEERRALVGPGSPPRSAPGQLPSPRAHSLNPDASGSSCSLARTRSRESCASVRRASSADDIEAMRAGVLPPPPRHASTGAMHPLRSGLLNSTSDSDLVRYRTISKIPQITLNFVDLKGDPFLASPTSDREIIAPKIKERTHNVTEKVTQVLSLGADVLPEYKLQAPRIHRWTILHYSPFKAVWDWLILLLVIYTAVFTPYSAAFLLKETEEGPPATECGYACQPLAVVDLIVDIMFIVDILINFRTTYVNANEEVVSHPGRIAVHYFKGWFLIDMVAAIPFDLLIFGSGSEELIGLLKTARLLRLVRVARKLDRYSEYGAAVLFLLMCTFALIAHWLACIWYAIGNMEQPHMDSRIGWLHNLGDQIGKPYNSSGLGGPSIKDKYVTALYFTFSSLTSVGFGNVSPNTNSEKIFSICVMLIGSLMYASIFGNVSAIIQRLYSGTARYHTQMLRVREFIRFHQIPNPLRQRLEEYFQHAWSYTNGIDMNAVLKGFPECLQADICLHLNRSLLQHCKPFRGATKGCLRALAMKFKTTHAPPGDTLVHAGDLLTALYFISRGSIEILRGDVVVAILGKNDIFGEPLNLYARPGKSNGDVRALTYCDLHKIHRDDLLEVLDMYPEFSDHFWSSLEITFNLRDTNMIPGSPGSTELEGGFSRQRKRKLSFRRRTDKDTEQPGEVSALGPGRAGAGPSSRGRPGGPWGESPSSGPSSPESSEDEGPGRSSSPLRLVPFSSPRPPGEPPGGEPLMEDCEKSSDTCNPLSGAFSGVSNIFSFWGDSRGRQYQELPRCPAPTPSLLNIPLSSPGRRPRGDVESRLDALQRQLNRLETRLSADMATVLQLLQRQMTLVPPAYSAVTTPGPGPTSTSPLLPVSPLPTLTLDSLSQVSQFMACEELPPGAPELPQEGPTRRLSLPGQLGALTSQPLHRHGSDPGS

| Structure (SMILES) | IC50 [1] | IC50 [2] | IC50 [3] | also measured |
| --- | --- | --- | --- | --- |
| NC[C@]1(c2ccsc2)[C@@H]2CCN(c3cnc4c(-c5cccc(Cl)c5Cl)n[nH]c4n3)C[C@@H]21 | 0.008 µM | 0.1 µM | 0.109 µM |  |
| Cc1csc([C@@]2(CN)[C@@H]3CCN(c4cnc(Sc5cccnc5C(F)(F)F)c(N)n4)C[C@@H]32)n1 | 0.065 µM | 0.009 µM |  |  |
| Cc1ccn([C@@]2(CN)[C@@H]3CN(c4cnc5c(-c6ccc7nn(C)cc7c6Cl)n[nH]c5n4)C[C@@H]32)n1 | 0.049 µM | 0.444 µM | > 30 µM |  |
| NC[C@]1(c2ccccc2)[C@@H]2CCN(c3cnc(Sc4cccnc4C(F)(F)F)c(N)n3)C[C@@H]21 | 0.36 µM |  |  |  |
| NC[C@]1(c2ccccc2)[C@@H]2CCN(c3cnc4c(-c5cccc(Cl)c5Cl)n[nH]c4n3)C[C@@H]21 | 0.009 µM | 0.26 µM | 0.389 µM |  |
| Cn1cc2c(Cl)c(-c3n[nH]c4nc(N5C[C@@H]6[C@H](C5)[C@@]6(CN)c5cnsn5)cnc34)ccc2n1 | 0.004 µM | 0.03 µM | > 30 µM |  |
| Cc1csc([C@@]2(CN)[C@@H]3CCN(c4cnc5c(-c6ccc7nn(C)cc7c6Cl)n[nH]c5n4)C[C@@H]32)n1 | 0.006 µM | 0.014 µM | 0.107 µM |  |
| Cn1ccc([C@@]2(CN)[C@@H]3CN(c4cnc5c(-c6ccc7nn(C)cc7c6Cl)n[nH]c5n4)C[C@@H]32)n1 | 0.007 µM | 0.153 µM | > 30 µM |  |
| N[C@]1(c2ccccc2)[C@@H]2CCN(c3nc4nc(Sc5cccnc5C(F)(F)F)cnc4[nH]3)C[C@@H]21 | 1.41 µM |  |  |  |
| Cn1cc2c(Cl)c(-c3n[nH]c4nc(N5C[C@@H]6[C@H](C5)[C@@]6(CN)c5nc(Cl)cs5)cnc34)ccc2n1 | 0.005 µM | 0.009 µM | 12.3 µM | IC50 (KYSE-520 cell line): 0.183 µM |
| Cc1csc([C@@]2(CN)[C@@H]3CN(c4cnc5c(-c6ccc7nc(C)sc7c6Cl)n[nH]c5n4)C[C@@H]32)n1 | 0.005 µM | 0.022 µM | 1.66 µM |  |
| NC[C@]1(c2ccccn2)[C@@H]2CCN(c3cnc4c(-c5cccc(Cl)c5Cl)n[nH]c4n3)C[C@@H]21 | 0.005 µM | 0.042 µM | 0.042 µM |  |
| N[C@]1(c2ccccc2)[C@@H]2CN(c3nc4nc(Sc5cccnc5C(F)(F)F)cnc4[nH]3)C[C@@H]21 | > 8 µM |  |  |  |
| Cc1csc([C@@]2(CN)[C@@H]3CN(c4cnc5c(-c6ccn7nccc7c6Cl)n[nH]c5n4)C[C@@H]32)n1 | 0.004 µM | 0.065 µM | 0.235 µM |  |
| Cn1cc2c(Cl)c(-c3n[nH]c4nc(N5C[C@@H]6[C@H](C5)[C@@]6(CN)c5nccs5)cnc34)ccc2n1 | 0.004 µM | 0.06 µM | 13.5 µM |  |
| N[C@]1(c2ccccc2)[C@@H]2CCN(c3cnc4c(-c5cccc(Cl)c5Cl)n[nH]c4n3)C[C@@H]21 | 1.46 µM |  |  |  |
| Cc1csc([C@@]2(CN)[C@@H]3CCN(c4cnc5c(-c6ccn7nccc7c6Cl)n[nH]c5n4)C[C@@H]32)n1 | 0.003 µM | 0.022 µM | 0.012 µM |  |
| Cc1csc([C@]2(CN)[C@@H]3CN(c4cnc5c(-c6cccc(Cl)c6Cl)n[nH]c5n4)CC[C@@H]32)n1 | 0.37 µM |  | 0.769 µM |  |
| NC[C@]1(c2ccsc2)[C@@H]2CCN(c3cnc4c(-c5cccnc5C(F)(F)F)n[nH]c4n3)C[C@@H]21 | 0.034 µM | > 0.666 µM | 5.56 µM |  |

| Structure (SMILES) | IC50 [1] | IC50 [2] | IC50 [3] | also measured |
| --- | --- | --- | --- | --- |
| NC[C@]1(c2ccsc2)[C@@H]2CCN(c3nc4nc(Sc5cccnc5C(F)(F)F)cnc4[nH]3)C[C@@H]21 | 0.054 µM | > 1.33 µM |  |  |
| NC[C@]1(c2ccccn2)[C@@H]2CCN(c3nc4nc(Sc5cccnc5C(F)(F)F)cnc4[nH]3)C[C@@H]21 | 0.017 µM | 0.477 µM |  |  |
| Cc1csc([C@@]2(CN)[C@@H]3CCN(c4cnc5c(-c6cccnc6C(F)(F)F)n[nH]c5n4)C[C@@H]32)n1 | 0.055 µM | > 0.666 µM | 5.06 µM |  |
| NC[C@]1(c2ccccc2)[C@@H]2CN(c3nc4nc(Sc5cccnc5C(F)(F)F)cnc4[nH]3)C[C@@H]21 | > 8 µM |  |  |  |
| Cc1csc([C@@]2(CN)[C@@H]3CCN(c4cnc5c(-c6cccc(Cl)c6Cl)n[nH]c5n4)C[C@@H]32)n1 (racemic) | 0.006 µM | 0.071 µM | 0.25 µM |  |
| Cc1nc([C@@]2(CN)[C@@H]3CN(c4cnc5c(-c6ccc7nn(C)cc7c6Cl)n[nH]c5n4)C[C@@H]32)cs1 | 0.006 µM | 0.089 µM | > 30 µM |  |
| Cc1csc([C@]2(CN)[C@@H]3CCN(c4cnc5c(-c6cccc(Cl)c6Cl)n[nH]c5n4)C[C@@H]32)n1 | 0.003 µM | 0.028 µM | 0.058 µM | Papp at 4 h, 5 µM [4]: 1.75 ×10⁻⁶ cm/s |
| Cn1cc2c(Cl)c(-c3n[nH]c4nc(N5C[C@@H]6[C@H](C5)[C@@]6(CN)c5nc(C(F)(F)F)cs5)cnc34)ccc2n1 | 0.012 µM | 0.021 µM | > 30 µM | IC50 (KYSE-520 cell line): 0.231 µM |
| Cc1nc(N2CCC3(CC2)CO[C@@H](C)[C@H]3N)c(CO)nc1-c1cccc(Cl)c1Cl |  | 0.022 µM | 3.35 µM | IC50 (KYSE-520 cell line): 4.55 µM |
| Cn1cc2c(Cl)c(-c3n[nH]c4nc(N5C[C@@H]6[C@H](C5)[C@@]6(CN)c5ccccc5)cnc34)ccc2n1 | 0.009 µM | 0.07 µM | 5.35 µM |  |
| Cc1nnc([C@@]2(CN)[C@@H]3CN(c4cnc5c(-c6ccc7nn(C)cc7c6Cl)n[nH]c5n4)C[C@@H]32)s1 | 0.01 µM | 0.162 µM | > 30 µM |  |
| Cn1cc2c(Cl)c(-c3n[nH]c4nc(N5C[C@@H]6[C@H](C5)[C@@]6(CN)c5ccccn5)cnc34)ccc2n1 | 0.005 µM | 0.04 µM | 8.96 µM |  |
| Cc1csc([C@@]2(CN)[C@@H]3CCN(c4nc5nc(Sc6cccnc6C(F)(F)F)cnc5[nH]4)C[C@@H]32)n1 | 0.009 µM | 0.21 µM |  |  |
| NC[C@]1(c2ccccc2)[C@@H]2CCN(c3nc4nc(Sc5cccnc5C(F)(F)F)cnc4[nH]3)C[C@@H]21 | 0.094 µM | > 1.33 µM |  |  |
| Cc1csc([C@@]2(CN)[C@@H]3CCN(c4cnc5c(-c6ccc7nc(C)sc7c6Cl)n[nH]c5n4)C[C@@H]32)n1 | 0.002 µM | 0.004 µM | 0.024 µM | Papp at 4 h, 5 µM [4]: 4.36 ×10⁻⁶ cm/s |
| Cc1cccc([C@@]2(CN)[C@@H]3CN(c4cnc5c(-c6ccc7nn(C)cc7c6Cl)n[nH]c5n4)C[C@@H]32)n1 | 0.004 µM | 0.09 µM | 5.87 µM |  |
| Cc1csc([C@@]2(CN)[C@@H]3CN(c4cnc5c(-c6ccc7nn(C)cc7c6Cl)n[nH]c5n4)C[C@@H]32)n1 | 0.005 µM | 0.024 µM | > 30 µM | IC50 (KYSE-520 cell line): 0.166 µM; solubility kinetic [5]: 124 µM (≈ 61 µg/mL); solubility kinetic [6]: 168 µM (≈ 82.7 µg/mL); solubility kinetic [7]: 175 µM (≈ 86.1 µg/mL); Papp [8]: 9.2 ×10⁻⁶ cm/s; Ratio [9]: 0.7; microsomal CLint at 1 µM [10]: 25 µL/min/mg; microsomal CLint at 1 µM [11]: 13.5 µL/min/mg; clearance [12]: 16.2 mL/min/kg; Vd [13]: 1 L/kg; half-life [14]: 1.9 h; Cmax [15]: 10 nM; AUC at 24 h [16]: 0.01 µM·h; bioavailability [17]: 1.2%; AUC at 24 h [18]: 0.58 µM·h; AUC at 24 h [19]: 0.05 µM·h |
| NC[C@]1(c2ccccn2)[C@@H]2CCN(c3cnc(Sc4cccnc4C(F)(F)F)c(N)n3)C[C@@H]21 | 0.068 µM | 0.02 µM |  |  |
